Literature values in patent US20090239812A1, “USE OF C7 SUGARS IN PREVENTION AND TREATMENT OF MYCOSES” (Laboratoires Expanscience, priority 2006, published 2009).

System: Ehrlich's ascites tumor cells
Settings: perseitol associated with a potassium ion; Shibuya et al. 1999

SMILES: OCC(O)C(O)C(O)C(O)C(O)CO (stereo not shown) [perseitol, Perseitol]
- incorporation of 3H-leucine: inhibits
